# The source made the active and inactive calls. Rule as the data show it, for most assays here: actives have a measured EC50 and inactives only a lower limit.
# Key:
# [1] = system: Streptococcus sp. 'group A'; assay: Streptococcus pyogenes SK(-)GAS viability under kanamycin – luminescence, BacTiterGlo, confirmation, counter-screen for streptokinase expression inhibitor project, dose response (AID 1900); type: functional, organism-based
# Streptokinase A = target: T1, Streptokinase A (Streptococcus pyogenes serotype M1, UniProt P10520); assay: viability-normalized secreted streptokinase activity reduction – plasminogen activation absorbance, OD405, dose response (AID 1914); type: functional, Streptococcus pyogenes M1 GAS;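 also: secreted streptokinase activity via plasminogen activation per viability signal from cell pellet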
# T1 sequence (P10520 whole entry): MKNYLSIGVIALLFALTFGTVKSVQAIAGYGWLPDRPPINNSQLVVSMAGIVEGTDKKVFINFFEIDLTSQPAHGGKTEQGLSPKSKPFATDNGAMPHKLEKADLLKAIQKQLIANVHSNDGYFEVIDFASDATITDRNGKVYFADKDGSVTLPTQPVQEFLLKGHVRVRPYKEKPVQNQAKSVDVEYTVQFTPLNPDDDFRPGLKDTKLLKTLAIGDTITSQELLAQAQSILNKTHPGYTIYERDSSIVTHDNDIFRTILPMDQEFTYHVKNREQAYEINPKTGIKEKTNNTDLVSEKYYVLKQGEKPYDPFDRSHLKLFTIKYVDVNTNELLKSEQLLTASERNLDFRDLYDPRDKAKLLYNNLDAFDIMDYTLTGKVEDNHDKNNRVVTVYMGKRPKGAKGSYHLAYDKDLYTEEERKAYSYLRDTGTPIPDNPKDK
# Streptococcus = assay: GAS UMAA2166 growth inhibition – luminescence, BacTiterGlo, counter-screen for streptokinase expression inhibitor project, dose response (AID 1915); type: functional, organism-based;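 also: potency for reduction of bacterial viability or growth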
# Vero = assay: viability of Vero cells under compound – cytotoxicity control for flavivirus capping enzyme inhibitors (AID 588742); type: functional; conditions: Chlorocebus sabaeus
# BJ [2] = assay: BJ-TERT fibroblast viability loss – cell-based, RAS-independent, luminescence, dose response (AID 1933); type: functional; conditions: Homo sapiens
# BJ [3] = assay: cells; type: functional, cell-based; conditions: Homo sapiens
# BJ [4] = assay: BJ-TERT-LT-ST fibroblast viability loss – cell-based, RAS-independent, luminescence, dose response (AID 1935); type: functional; conditions: Homo sapiens;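 also: BJ fibroblasts immortalized with TERT plus LT and ST oncogenes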
# [5] = DRD fibroblast viability loss – cell-based, non-viral oncogenic, luminescence, dose response (AID 1934); type: functional; conditions: Homo sapiens
# [6] = target: T2, Ubiquitin-conjugating enzyme E2 N (Homo sapiens, UniProt P61088); type: functional;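 also: Dose-response confirmation in a TR-FRET assay detecting UBC13-driven polyubiquitin chain formation, inhibition measured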
# T2 sequence (P61088 whole entry): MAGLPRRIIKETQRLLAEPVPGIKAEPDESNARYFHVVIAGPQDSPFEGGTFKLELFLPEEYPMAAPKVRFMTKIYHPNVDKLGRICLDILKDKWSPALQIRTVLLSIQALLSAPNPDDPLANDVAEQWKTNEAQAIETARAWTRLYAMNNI
# BJ [7] = assay: growth inhibition of engineered Ras-driven BJ cells – cell-based, alamar blue fluorescence, cherrypicked samples, dose response (AID 2631); type: functional; conditions: Homo sapiens;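 also: confirmatory dose-response assay in RAS-dependent BJ fibroblasts engineered with TERT, LT and ST, with cytotoxicity read by fluorescence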
# INS1 = assay: INS-1E survival protection against cytokine death – cell-based, luminescence, retest, dose response (AID 449756); type: functional; conditions: Rattus norvegicus;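 also: cell death triggered by IL-1 beta plus TNF-alpha plus IFN-gamma mixture; protective hits raise ATP signal compared with cytokine alone wells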
# [8] = target: T3, DNA repair protein RAD52 homolog (Homo sapiens, UniProt P43351); type: functional, biochemical
# T3 sequence (P43351 whole entry): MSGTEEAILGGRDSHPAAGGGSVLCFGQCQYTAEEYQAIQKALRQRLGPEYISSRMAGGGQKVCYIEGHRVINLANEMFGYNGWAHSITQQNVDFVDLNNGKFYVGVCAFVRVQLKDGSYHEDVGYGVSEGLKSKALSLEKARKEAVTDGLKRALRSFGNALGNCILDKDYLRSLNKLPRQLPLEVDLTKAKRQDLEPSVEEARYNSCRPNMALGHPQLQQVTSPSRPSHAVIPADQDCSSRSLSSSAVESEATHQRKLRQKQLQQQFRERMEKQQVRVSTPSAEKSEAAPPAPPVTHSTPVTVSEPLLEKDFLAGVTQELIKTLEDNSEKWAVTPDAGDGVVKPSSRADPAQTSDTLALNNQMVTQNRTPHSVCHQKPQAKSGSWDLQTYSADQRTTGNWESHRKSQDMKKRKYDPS
# [9] = target: T4, Apoptotic protease-activating factor 1 (Homo sapiens, UniProt O14727); type: functional
# T4 sequence (O14727 whole entry): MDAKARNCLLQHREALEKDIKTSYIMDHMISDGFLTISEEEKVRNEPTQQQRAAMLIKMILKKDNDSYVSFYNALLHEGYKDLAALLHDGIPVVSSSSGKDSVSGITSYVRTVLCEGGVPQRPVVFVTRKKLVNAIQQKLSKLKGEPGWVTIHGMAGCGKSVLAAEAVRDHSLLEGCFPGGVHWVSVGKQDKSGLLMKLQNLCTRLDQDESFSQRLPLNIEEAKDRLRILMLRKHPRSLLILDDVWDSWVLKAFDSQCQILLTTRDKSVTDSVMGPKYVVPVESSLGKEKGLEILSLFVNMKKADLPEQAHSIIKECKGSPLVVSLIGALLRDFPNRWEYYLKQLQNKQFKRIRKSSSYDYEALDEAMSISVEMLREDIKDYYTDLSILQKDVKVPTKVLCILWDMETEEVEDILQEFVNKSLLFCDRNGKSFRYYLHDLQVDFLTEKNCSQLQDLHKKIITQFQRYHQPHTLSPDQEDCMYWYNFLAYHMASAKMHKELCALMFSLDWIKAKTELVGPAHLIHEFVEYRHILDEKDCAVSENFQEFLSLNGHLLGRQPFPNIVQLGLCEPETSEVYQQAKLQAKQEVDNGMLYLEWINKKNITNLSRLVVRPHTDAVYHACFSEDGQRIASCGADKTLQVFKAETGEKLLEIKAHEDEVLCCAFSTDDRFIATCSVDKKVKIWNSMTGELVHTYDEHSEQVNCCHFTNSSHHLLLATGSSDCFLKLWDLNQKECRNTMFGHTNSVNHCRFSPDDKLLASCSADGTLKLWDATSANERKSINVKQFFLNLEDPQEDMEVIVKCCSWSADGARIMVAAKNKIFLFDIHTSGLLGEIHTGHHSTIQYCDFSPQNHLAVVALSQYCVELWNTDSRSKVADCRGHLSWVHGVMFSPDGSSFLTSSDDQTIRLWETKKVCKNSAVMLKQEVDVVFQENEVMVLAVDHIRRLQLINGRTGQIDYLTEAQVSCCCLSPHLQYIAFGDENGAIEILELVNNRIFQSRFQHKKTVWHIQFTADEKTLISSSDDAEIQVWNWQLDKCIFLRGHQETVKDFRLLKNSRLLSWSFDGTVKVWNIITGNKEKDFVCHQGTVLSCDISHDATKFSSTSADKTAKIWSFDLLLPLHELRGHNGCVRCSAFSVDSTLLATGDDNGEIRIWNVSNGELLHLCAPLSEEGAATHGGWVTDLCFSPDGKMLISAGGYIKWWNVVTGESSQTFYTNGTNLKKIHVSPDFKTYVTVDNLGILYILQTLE
# [10] = target: T5, Replicative DNA helicase DnaB (Mycobacterium tuberculosis, UniProt P9WMR3); assay: DnaB intein splicing inhibitors, dose response, biochemical, cell-free fluorescence (AID 449749); type: functional
# T5 sequence (P9WMR3 whole entry): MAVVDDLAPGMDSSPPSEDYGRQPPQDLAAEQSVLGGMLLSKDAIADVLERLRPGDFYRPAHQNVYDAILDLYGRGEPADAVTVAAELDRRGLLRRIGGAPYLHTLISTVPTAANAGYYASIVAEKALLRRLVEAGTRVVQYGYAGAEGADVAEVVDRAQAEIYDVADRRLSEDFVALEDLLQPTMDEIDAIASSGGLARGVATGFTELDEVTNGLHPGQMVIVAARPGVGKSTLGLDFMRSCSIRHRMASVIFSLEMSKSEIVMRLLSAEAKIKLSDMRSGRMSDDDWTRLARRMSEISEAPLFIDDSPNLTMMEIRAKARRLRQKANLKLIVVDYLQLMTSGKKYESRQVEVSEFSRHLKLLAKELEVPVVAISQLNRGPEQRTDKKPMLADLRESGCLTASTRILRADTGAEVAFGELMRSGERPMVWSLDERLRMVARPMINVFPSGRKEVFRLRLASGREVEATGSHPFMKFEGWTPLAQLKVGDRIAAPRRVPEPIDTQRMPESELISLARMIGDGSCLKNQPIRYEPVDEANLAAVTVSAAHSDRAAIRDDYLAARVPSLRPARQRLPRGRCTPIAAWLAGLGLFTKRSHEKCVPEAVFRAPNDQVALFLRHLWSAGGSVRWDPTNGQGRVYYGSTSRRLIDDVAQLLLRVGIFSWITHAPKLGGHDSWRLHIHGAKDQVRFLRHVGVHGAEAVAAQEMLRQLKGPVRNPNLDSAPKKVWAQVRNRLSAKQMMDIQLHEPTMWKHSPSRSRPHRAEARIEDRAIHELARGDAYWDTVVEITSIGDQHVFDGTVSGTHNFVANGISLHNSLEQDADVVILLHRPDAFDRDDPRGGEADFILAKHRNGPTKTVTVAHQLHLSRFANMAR
# Protein RecA = target: T6, Protein RecA (Mycobacterium tuberculosis, UniProt P9WHJ3); assay: Fluorescence Cell-Free Homogeneous Dose Retest to Identify Inhibitors of RecA-Intein Splicing Activity. [Related pubchem assays (depositor defined):AID2097, AID2223, AID489010, AID492950]; type: functional
# T6 sequence (P9WHJ3 whole entry): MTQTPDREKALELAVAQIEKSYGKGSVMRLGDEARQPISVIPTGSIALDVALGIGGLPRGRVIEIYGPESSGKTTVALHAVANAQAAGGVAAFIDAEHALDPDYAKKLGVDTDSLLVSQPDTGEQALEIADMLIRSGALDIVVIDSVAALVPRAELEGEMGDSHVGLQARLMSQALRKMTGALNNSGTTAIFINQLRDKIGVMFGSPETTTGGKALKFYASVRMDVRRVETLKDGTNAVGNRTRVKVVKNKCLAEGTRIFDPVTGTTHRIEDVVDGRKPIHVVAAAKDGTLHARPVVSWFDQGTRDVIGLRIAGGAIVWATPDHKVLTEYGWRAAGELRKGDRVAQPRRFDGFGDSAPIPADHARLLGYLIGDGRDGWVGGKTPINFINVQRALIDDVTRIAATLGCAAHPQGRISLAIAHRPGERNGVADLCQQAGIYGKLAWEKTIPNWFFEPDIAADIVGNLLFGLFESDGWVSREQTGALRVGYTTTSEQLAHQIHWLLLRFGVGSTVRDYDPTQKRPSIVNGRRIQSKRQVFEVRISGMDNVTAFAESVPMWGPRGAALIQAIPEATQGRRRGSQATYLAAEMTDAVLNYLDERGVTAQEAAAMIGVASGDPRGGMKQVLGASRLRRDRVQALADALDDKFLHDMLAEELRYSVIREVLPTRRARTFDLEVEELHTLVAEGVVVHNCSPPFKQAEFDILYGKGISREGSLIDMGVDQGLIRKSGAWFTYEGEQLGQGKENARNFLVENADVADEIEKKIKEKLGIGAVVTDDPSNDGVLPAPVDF
SMILES,CC50 (Vero),EC50 (BJ [2]),EC50 (BJ [3]),EC50 (BJ [4]),EC50 [5],EC50 (BJ [7]),further results
COc1ccc(NC(S)=NNc2ccc([N+](=O)[O-])cc2S(=O)(=O)Nc2ccc(C)cc2C)cc1,12.2 µM (active),–,–,–,–,–,EC50 [1]: 6.57 µM (active); EC50 (Streptokinase A): > 150 µM (not active); EC50 (Streptococcus): 37.7 µM (active)
COc1ccc(C2c3ccc4ccccc4c3Oc3ncn(CCCN(C)C)c(=N)c32)cc1 (stereo unspecified),–,5.07 µM (inconclusive),7.71 µM (active),4.18 µM (active),4.43 µM (active),2.86 µM (inconclusive),IC50 [6]: > 20 µM (inactive); AC50 (INS1): 7.32 µM (active); AC50 [8]: 2.33 µM (active)
CCCN1C(=O)/C(=C\C=C2/C=CN(CC)c3ccccc32)SC1=S,> 40 µM (active),–,–,–,–,–,–
CCc1ccc(NC(=S)Nc2cccc3cnccc23)cc1,–,–,–,–,–,–,IC50 [9]: 20 µM (active)
CCSc1cc(C2C(C#N)=C(N)Oc3[nH]nc(C)c32)c(C)o1 (stereo unspecified),–,25.5 µM (active),17.7 µM (active),> 150 µM (not active),14.7 µM (active),8.45 µM (active),AC50 [10]: 10.3 µM (active); EC50 (Protein RecA): 3.29 µM (active)

# — ChEMBL document CHEMBL1201862, “PubChem BioAssay data set” (2004)
